Literature values, collected in patent US7923465B2, “Cannabinoid receptor ligands, pharmaceutical compositions containing them, and process for their preparation” (priority 2005, dated 2011).
Where two headings read alike, the source gives them in different places.

What was measured:
[1] = system: voluntary ethanol intake; settings: rats; cited from earlier work
[2] = system: voluntary ethanol intake; settings: mice; cited from earlier work

**Q.** Which results are given for `Cc1c(C(=O)NN2CCCCC2)nn(-c2ccc(Cl)cc2Cl)c1-c1ccc(Cl)cc1` [SR-141716A, 5-(4-chlorophenyl)-1-(2,4-dichlorophenyl)-4-methyl-N-(1-piperidyl)pyrazole-3-carboxamide]?
**A.** voluntary ethanol intake [1]: block voluntary ethanol intake; voluntary ethanol intake [2]: block voluntary ethanol intake
